Results: ChEMBL document CHEMBL1201862, “PubChem BioAssay data set” (2004)
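Assay format: 96-well plates, 48-hour exposure. GI50 marks 50% less growth.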 The source made the active and inactive calls. Rule as the data show it: active = GI50 up to about 1.1 µM and inactive = higher.

Key:
Experiment in all cases: NCI anticancer screen, dose series, 48 h
RPMI-8226 = test system: RPMI-8226
UO-31 = test system: UO-31
SNB-19 = test system: SNB-19
SW-620 = test system: SW-620
SK-OV-3 = test system: SK-OV-3
K562 = test system: K562
SR = test system: SR
SF-295 = test system: SF-295
SK-MEL-5 = test system: SK-MEL-5
ACHN = test system: ACHN
NCI-H460 = test system: NCI-H460
IGROV-1 = test system: IGROV-1
KM12 = test system: KM12
SN12C = test system: SN12C
UACC-62 = test system: UACC-62
A549 = test system: A549
M14 = test system: M14
HCC 2998 = test system: HCC 2998
OVCAR-8 = test system: OVCAR-8

Measured: GI50

COC(=O)/C(=C/c1ccc(OC)cc1)C(C(=O)O)=C1CCCC1
inactive: RPMI-8226 > 100 µM | UO-31 > 100 µM | SNB-19 > 100 µM | SW-620 > 100 µM | SK-OV-3 > 100 µM | K562 > 100 µM | SR > 100 µM | SF-295 > 100 µM | SK-MEL-5 > 100 µM | ACHN > 100 µM | NCI-H460 > 100 µM | IGROV-1 > 100 µM | KM12 > 100 µM | SN12C > 100 µM | UACC-62 > 100 µM | A549 > 100 µM | M14 > 100 µM | HCC 2998 > 100 µM | OVCAR-8 > 100 µM

COC(=O)c1ccc(COC(=O)N2C=CCC2C(=O)O)cc1 (centres undefined)
inactive: RPMI-8226 > 100 µM | UO-31 > 100 µM | SNB-19 > 100 µM | SW-620 > 100 µM | SK-OV-3 > 100 µM | K562 > 100 µM | SR > 100 µM | SF-295 > 100 µM | SK-MEL-5 > 100 µM | ACHN > 100 µM | NCI-H460 > 100 µM | IGROV-1 > 100 µM | KM12 > 100 µM | SN12C > 100 µM | UACC-62 > 100 µM | A549 > 100 µM | M14 > 100 µM | HCC 2998 > 100 µM | OVCAR-8 > 100 µM

CCc1cccc(C(C)C)c1NC(=O)C(=O)C(C(=O)C(=O)OC)c1nc2ccccc2nc1O (centres undefined)
inactive: RPMI-8226 > 100 µM | UO-31 > 100 µM | SNB-19 > 100 µM | SW-620 > 100 µM | SK-OV-3 > 100 µM | K562 > 100 µM | SR > 100 µM | SF-295 > 100 µM | SK-MEL-5 > 100 µM | ACHN > 100 µM | NCI-H460 > 100 µM | IGROV-1 > 100 µM | KM12 > 100 µM | SN12C > 100 µM | UACC-62 > 100 µM | A549 > 100 µM | M14 > 100 µM | HCC 2998 > 100 µM | OVCAR-8 > 100 µM

O=C1C(Cl)C(c2ccccc2)N1n1cnc2ccccc2c1=O (centres undefined)
inactive: RPMI-8226 54.2 µM | UO-31 23.6 µM | SNB-19 60.4 µM | SW-620 > 100 µM | SK-OV-3 74.6 µM | K562 > 100 µM | SR 36.1 µM | SF-295 > 100 µM | SK-MEL-5 > 100 µM | ACHN > 100 µM | NCI-H460 > 100 µM | IGROV-1 > 100 µM | KM12 > 100 µM | SN12C > 100 µM | UACC-62 > 100 µM | A549 > 100 µM | M14 > 100 µM | HCC 2998 > 100 µM | OVCAR-8 > 100 µM

COc1cc2c(cc1OC)C1C=NC(C(=O)O)(C2)c2ccccc21 (centres undefined)
inactive: RPMI-8226 > 100 µM | UO-31 > 10 µM | SNB-19 > 100 µM | SW-620 > 100 µM | SK-OV-3 > 100 µM | K562 23 µM | SR > 100 µM | SF-295 > 100 µM | SK-MEL-5 > 100 µM | NCI-H460 > 100 µM | IGROV-1 > 100 µM | KM12 > 100 µM | SN12C > 100 µM | UACC-62 > 100 µM | A549 > 100 µM | M14 > 100 µM | HCC 2998 > 10 µM | OVCAR-8 > 100 µM

Cc1cccc(C)c1NC(=O)/C(=N/NC(N)=S)C(C)C(=O)c1ccc(Cl)cc1 (centres undefined)
inactive: RPMI-8226 > 100 µM | UO-31 > 100 µM | SNB-19 > 100 µM | SW-620 > 100 µM | SK-OV-3 > 100 µM | K562 > 100 µM | SR > 100 µM | SF-295 > 100 µM | SK-MEL-5 > 100 µM | ACHN > 100 µM | NCI-H460 > 100 µM | IGROV-1 > 100 µM | KM12 > 100 µM | SN12C > 100 µM | UACC-62 > 100 µM | A549 > 100 µM | M14 > 100 µM | HCC 2998 > 100 µM | OVCAR-8 > 100 µM

COC(=O)C(CCS(=O)(=O)CC(=O)C(=O)Nc1cccc(C(C)=O)c1)C(=O)OC
inactive: RPMI-8226 > 47.2 µM | UO-31 > 100 µM | SNB-19 > 100 µM | SW-620 > 100 µM | SK-OV-3 > 100 µM | K562 > 61 µM | SR 20.9 µM | SF-295 > 100 µM | SK-MEL-5 > 100 µM | ACHN > 100 µM | NCI-H460 > 53 µM | IGROV-1 > 100 µM | KM12 > 100 µM | SN12C > 100 µM | UACC-62 > 100 µM | A549 > 100 µM | M14 > 100 µM | HCC 2998 > 100 µM | OVCAR-8 > 100 µM

NC1=NN(c2ccccc2)C(=O)C1/C(=N\NC(=O)c1cc2ccccc2cc1O)C(=O)Nc1nc([N+](=O)[O-])cs1 (centres undefined)
inactive: RPMI-8226 9.59 µM | UO-31 9.42 µM | SNB-19 > 60.1 µM | SW-620 27.9 µM | SK-OV-3 55.7 µM | K562 9.64 µM | SR 6.78 µM | SF-295 28.9 µM | SK-MEL-5 20.3 µM | ACHN 34.4 µM | NCI-H460 18.1 µM | IGROV-1 19.1 µM | KM12 30.3 µM | SN12C 37 µM | UACC-62 19.6 µM | A549 32.7 µM | M14 35.7 µM | HCC 2998 40.2 µM | OVCAR-8 19.5 µM

CC(C)N(C(=O)C12C3C4C5C3C1(C(=O)N(C(C)C)C(C)C)C5C42)C(C)C (centres undefined)
inactive: RPMI-8226 > 44.7 µM | UO-31 > 100 µM | SNB-19 > 100 µM | SW-620 > 52.4 µM | SK-OV-3 > 100 µM | K562 > 39.2 µM | SR 19.1 µM | SF-295 > 100 µM | SK-MEL-5 > 100 µM | ACHN > 100 µM | NCI-H460 > 56.8 µM | IGROV-1 > 100 µM | KM12 > 100 µM | SN12C > 100 µM | UACC-62 > 100 µM | A549 > 58.9 µM | M14 > 100 µM | HCC 2998 > 100 µM | OVCAR-8 > 60.5 µM

N#C/C(=C\c1cccc(Cl)c1Cl)c1ccccc1
inactive: RPMI-8226 > 61.9 µM | UO-31 48.1 µM | SNB-19 > 49.3 µM | SW-620 > 53 µM | SK-OV-3 45.7 µM | K562 > 72.4 µM | SR > 38.1 µM | SF-295 38.4 µM | SK-MEL-5 65.3 µM | ACHN 44.9 µM | NCI-H460 58.9 µM | IGROV-1 33.7 µM | KM12 > 82.4 µM | SN12C 49.1 µM | UACC-62 58.3 µM | A549 66.8 µM | M14 74.5 µM | HCC 2998 > 79.3 µM | OVCAR-8 53.3 µM
